The target in the test is T1, oestrogen receptor (ER) (Homo sapiens, UniProt P03372).
T1 construct: These MVLN cells express, along with the functional oestrogen receptor (ER), a reporter construct; endogenous in cells; host or cells: MVLN cells (MCF7 derivative with ER-responsive luciferase reporter)
T1 sequence (P03372 1-595): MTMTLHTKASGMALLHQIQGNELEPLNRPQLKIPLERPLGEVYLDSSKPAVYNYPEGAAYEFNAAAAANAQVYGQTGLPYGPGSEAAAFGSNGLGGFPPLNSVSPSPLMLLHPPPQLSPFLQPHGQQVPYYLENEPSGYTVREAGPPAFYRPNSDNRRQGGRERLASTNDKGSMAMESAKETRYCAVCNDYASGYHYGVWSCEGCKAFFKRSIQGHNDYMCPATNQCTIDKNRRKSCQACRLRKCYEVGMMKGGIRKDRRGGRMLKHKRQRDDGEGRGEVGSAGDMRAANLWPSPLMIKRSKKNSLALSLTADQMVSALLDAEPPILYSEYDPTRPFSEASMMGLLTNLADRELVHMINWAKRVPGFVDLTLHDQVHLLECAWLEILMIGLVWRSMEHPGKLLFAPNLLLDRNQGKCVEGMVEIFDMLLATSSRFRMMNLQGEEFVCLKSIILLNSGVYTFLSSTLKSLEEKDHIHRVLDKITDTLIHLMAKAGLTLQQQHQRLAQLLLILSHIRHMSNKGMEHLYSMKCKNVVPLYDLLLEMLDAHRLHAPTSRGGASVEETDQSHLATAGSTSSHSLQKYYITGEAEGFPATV
Put plainly: Anti-oestrogenic action in MVLN cells (inhibition of estradiol-induced luciferase, transactivation antagonism). The conditions noted are these: inhibition of estradiol-induced luciferase activity, read-out: Anti-oestrogenic action in vitro: MVLN transactivation antagonism IC50. Format: cell-based. The text has this: The anti-oestrogenic action of the claimed pharmacological compounds was investigated in so-called MVLN cells in vitro. MVLN cells are derivatives of the hormone-responsive MCF7 breast cancer cells known by a person skilled in the art. These MVLN cells express, along with the functional oestrogen receptor (ER), a reporter construct, which under ER-activation expresses luciferase. Determination of the activity of the induced luciferase permits a direct conclusion on the oestrogen properties of substances. To investigate the anti-oestrogenic properties of the pharmacological compounds, they were investigated in the presence of oestrogen for their potential for inhibiting the luciferase signal induced by estradiol.
The claimed pharmacological test substances were investigated in MVLN cells for their anti-oestrogenic potential, as described (see Table 2).

23 molecules from patent publication US20150080438A1, “6,7-Dihydro-5H-benzo[7]annulene derivatives, processes for their preparation, pharmaceutical products comprising them and their use for preparing medicaments” (Bayer Intellectual Property GmbH, priority 2011, published 2015) can be followed below.

By IC50 is commonly meant the concentration that gives 50% inhibition.

Take `O=S(=O)(CCCN(CCCO)CCCCCCC1=C(c2cccc(O)c2)CCCc2cc(O)ccc21)CCC(F)(F)F` [Example 99, 8-(3-Hydroxyphenyl)-9-{6-[(3-hydroxypropyl){3-[(3,3,3-trifluoropropyl)sulphonyl]propyl}amino]hexyl}-6,7-dihydro-5H-benzo[7]annulen-3-ol]: the IC50 stood at 8 nM. Consider `CN(CCCCCCC1=C(c2cccnc2)CCCc2cc(O)ccc21)CCC[S+]([O-])CCCC(F)(F)C(F)(F)F` (racemic) [Example 43, 9-[6-(Methyl{3-[(RS)-(4,4,5,5,5-pentafluoropentyl)sulphinyl]propyl}amino)hexyl]-8-(3-pyridyl)-6,7-dihydro-5H-benzo[7]annulen-3-ol], for which the IC50 is 8 nM. In the case of `O=S(=O)(CCCN(CCO)CCCCCCC1=C(c2ccccc2)CCCc2cc(O)ccc21)CCCC(F)(F)C(F)(F)F` [Example 71, 9-{6-[(2-Hydroxyethyl){3-[(4,4,5,5,5-pentafluoropentyl)sulphonyl]propyl}amino]hexyl}-8-phenyl-6,7-dihydro-5H-benzo[7]annulen-3-ol] it was 13 nM; in that of `CN(CCCCCCC1=C(c2cccc(O)c2)CCCc2cc(O)ccc21)CCCCS(=O)(=O)CCCC(F)(F)F` [Example 52, 8-(3-Hydroxyphenyl)-9-[6-(methyl{4-[(4,4,4-trifluorobutyl)sulphonyl]butyl}amino)hexyl]-6,7-dihydro-5H-benzo[7]annulen-3-ol], 1 nM; in that of `[O-][S+](CCCNCCCCCC1=C(c2ccccc2)CCCc2cc(O)ccc21)CCCC(F)(F)C(F)(F)F` (racemic) [Example 50, 9-[5-({3-[(RS)-(4,4,5,5,5-Pentafluoropentyl)sulphinyl]propyl}amino)pentyl]-8-phenyl-6,7-dihydro-5H-benzo[7]annulen-3-ol], 7 nM. Take `COCCN(CCCCCCC1=C(c2ccc(F)c(O)c2)CCCc2cc(O)ccc21)CCCS(=O)(=O)CCCC(F)(F)C(F)(F)F` [Example 105, 8-(4-Fluoro-3-hydroxyphenyl)-9-{6-[(2-methoxyethyl){3-[(4,4,5,5,5-pentafluoropentyl)sulphonyl]propyl}amino]hexyl}-6,7-dihydro-5H-benzo[7]annulen-3-ol]: the IC50 is 2 nM. Next, `CN(CCCCCC1=C(c2cccc(O)c2)CCCc2cc(O)ccc21)CCCCCS(=O)(=O)CCCC(F)(F)C(F)(F)F` [Example 9, 8-(3-Hydroxyphenyl)-9-[5-(methyl{5-[(4,4,5,5,5-pentafluoropentyl)sulphonyl]pentyl}amino)pentyl]-6,7-dihydro-5H-benzo[7]annulen-3-ol]: 8 nM; `O=S(=O)(CCCN(CCO)CCCCCCC1=C(c2cccc(O)c2)CCCc2cc(O)ccc21)CCCC(F)(F)C(F)(F)F` [Example 91, 9-{6-[(2-Hydroxyethyl){3-[(4,4,5,5,5-pentafluoropentyl)sulphonyl]propyl}amino]hexyl}-8-(3-hydroxyphenyl)-6,7-dihydro-5H-benzo[7]annulen-3-ol]: 3 nM. Turning to `CCN(CCCCCCC1=C(c2cccc(O)c2)CCCc2cc(O)ccc21)CCC[S+]([O-])CCC(F)(F)F` (racemic) [Example 94, 9-[6-(Ethyl{3-[(RS)-(3,3,3-trifluoropropyl)sulphinyl]propyl}amino)hexyl]-8-(3-hydroxyphenyl)-6,7-dihydro-5H-benzo[7]annulen-3-ol], the IC50 came to 9 nM. Next, `CCN(CCCCCCC1=C(c2ccccc2)CCCc2cc(O)ccc21)CCC[S+]([O-])CCC(F)(F)F` (racemic) [Example 76, 9-[6-(Ethyl{3-[(RS)-(3,3,3-trifluoropropyl)sulphinyl]propyl}amino)hexyl]-8-phenyl-6,7-dihydro-5H-benzo[7]annulen-3-ol]: 23 nM.

For the molecule `CN(CCCCCCC1=C(c2cccc(O)c2)CCCc2cc(O)ccc21)CCC[S+]([O-])CCCC(F)(F)C(F)(F)F` (racemic) [Example 12, 8-(3-Hydroxyphenyl)-9-[6-(methyl{3-[(RS)-(4,4,5,5,5-pentafluoropentyl)sulphinyl]propyl}amino)hexyl]-6,7-dihydro-5H-benzo[7]annulen-3-ol], the IC50 came to 2 nM. As to `CN(CCCCCCC1=C(c2ccccc2)CCCc2c1ccc(O)c2Cl)CCCCS(=O)(=O)CCC(F)(F)F` [Example 109, 4-Chloro-9-[6-(methyl{4-[(3,3,3-trifluoropropyl)sulphonyl]butyl}amino)hexyl]-8-phenyl-6,7-dihydro-5H-benzo[7]annulen-3-ol], the IC50 was 87 nM.

In the case of `COCCCN(CCCCCCC1=C(c2cccc(O)c2)CCCc2cc(O)ccc21)CCC[S+]([O-])CCCC(F)(F)C(F)(F)F` (racemic) [Example 108, 8-(3-Hydroxyphenyl)-9-{6-[(3-methoxypropyl){3-[(RS)-(4,4,5,5,5-pentafluoropentyl)sulphinyl]propyl}amino]hexyl}-6,7-dihydro-5H-benzo[7]annulen-3-ol], the IC50 is 2 nM. In the case of `CN(CCCCCCC1=C(c2ccc(F)c(O)c2)CCCc2cc(O)c(F)cc21)CCCCS(=O)(=O)CCCC(F)(F)C(F)(F)F` [Example 121, 2-Fluoro-8-(4-fluoro-3-hydroxyphenyl)-9-[6-(methyl{4-[(4,4,5,5,5-pentafluoropentyl)sulphonyl]butyl}amino)hexyl]-6,7-dihydro-5H-benzo[7]annulen-3-ol], the IC50 was 7 nM.

For the molecule `O=S(=O)(CCCN(CCCO)CCCCCCC1=C(c2ccccc2)CCCc2cc(O)ccc21)CCC(F)(F)F` [Example 81, 9-{6-[(3-Hydroxypropyl){3-[(3,3,3-trifluoropropyl)sulphonyl]propyl}amino]hexyl}-8-phenyl-6,7-dihydro-5H-benzo[7]annulen-3-ol], the IC50 is 39 nM. Consider `CN(CCCCCCC1=C(c2ccc(F)c(O)c2)CCCc2c1ccc(O)c2F)CCCCS(=O)(=O)CCCC(F)(F)F` [Example 118, 4-Fluoro-8-(4-fluoro-3-hydroxyphenyl)-9-[6-(methyl{4-[(4,4,4-trifluorobutyl)sulphonyl]butyl}amino)hexyl]-6,7-dihydro-5H-benzo[7]annulen-3-ol], for which the IC50 was 9 nM. As for `CN(CCCCCCC1=C(c2ccc(C#N)cc2)CCCc2cc(O)ccc21)CCCS(=O)(=O)CCCC(F)(F)C(F)(F)F` [Example 22, 4-{3-Hydroxy-9-[6-(methyl{3-[(4,4,5,5,5-pentafluoropentyl)sulphonyl]propyl}amino)hexyl]-6,7-dihydro-5H-benzo[7]annulen-8-yl}benzonitrile], the IC50 came to 17 nM. For `CN(CCCCCCC1=C(c2ccccc2)CCCc2cc(O)ccc21)CCCS(=O)(=O)CCC(F)(F)C(F)(F)F` [Example 62, 9-[6-(Methyl{3-[(3,3,4,4,4-pentafluorobutyl)sulphonyl]propyl}amino)hexyl]-8-phenyl-6,7-dihydro-5H-benzo[7]annulen-3-ol], the IC50 was determined as 12 nM. Next, `CCN(CCCCCCC1=C(c2ccccc2)CCCc2cc(O)ccc21)CCC[S+]([O-])CCCC(F)(F)C(F)(F)F` (racemic) [Example 68, 9-[6-(Ethyl{3-[(RS)-(4,4,5,5,5-pentafluoropentyl)sulphinyl]propyl}amino)hexyl]-8-phenyl-6,7-dihydro-5H-benzo[7]annulen-3-ol]: 5 nM; `[O-][S+](CCCN(CCCO)CCCCCCC1=C(c2ccccc2)CCCc2cc(O)ccc21)CCC(F)(F)F` (racemic) [Example 80, 9-{6-[(3-Hydroxypropyl){3-[(RS)-(3,3,3-trifluoropropyl)sulphinyl]propyl}amino]hexyl}-8-phenyl-6,7-dihydro-5H-benzo[7]annulen-3-ol]: 9 nM; `[O-][S+](CCCN(CCCO)CCCCCCC1=C(c2cccc(O)c2)CCCc2cc(O)ccc21)CCCC(F)(F)C(F)(F)F` (racemic) [Example 88, 8-(3-Hydroxyphenyl)-9-{6-[(3-hydroxypropyl){3-[(RS)-(4,4,5,5,5-pentafluoropentyl)sulphinyl]propyl}amino]hexyl}-6,7-dihydro-5H-benzo[7]annulen-3-ol]: 1 nM.

In the case of `CN(CCCCCCC1=C(c2ccc(F)c(O)c2)CCCc2c1ccc(O)c2F)CCCS(=O)(=O)CCCC(F)(F)C(F)(F)F` [Example 114, 4-Fluoro-8-(4-fluoro-3-hydroxyphenyl)-9-[6-(methyl{3-[(4,4,5,5,5-pentafluoropentyl)sulphonyl]propyl}amino)hexyl]-6,7-dihydro-5H-benzo[7]annulen-3-ol], the IC50 was 20 nM. Take `[O-][S+](CCCN(CCO)CCCCCCC1=C(c2cccc(O)c2)CCCc2cc(O)ccc21)CCC(F)(F)F` (racemic) [Example 95, 9-{6-[(2-Hydroxyethyl){3-[(RS)-(3,3,3-trifluoropropyl)sulphinyl]propyl}amino]hexyl}-8-(3-hydroxyphenyl)-6,7-dihydro-5H-benzo[7]annulen-3-ol]: the IC50 was found to be 7 nM.
